Measurements taken from patent US9365546B2, “Substituted pyridinone-pyridinyl compounds” (CONFLUENCE LIFE SCIENCES INC., priority 2010, dated 2016).
“And” between values parts separate entries of the source, which are not always exact repeats. Identical values can stand only once.

How the values were obtained:
p38/MK2 = p38/MK2 (Homo sapiens (Human), UniProt Q16539); experiment: p38α/MK2 cascade assay (phosphorylation of Hsp27 peptide, Caliper LabChip 3000); format: biochemical; settings: activated p38α 20 pM, His6-MK2 1 nM, Hsp27 peptide 1 μM, MgATP 10 μM; two values per cell
p38/MK2, sequence (Q16539 whole entry): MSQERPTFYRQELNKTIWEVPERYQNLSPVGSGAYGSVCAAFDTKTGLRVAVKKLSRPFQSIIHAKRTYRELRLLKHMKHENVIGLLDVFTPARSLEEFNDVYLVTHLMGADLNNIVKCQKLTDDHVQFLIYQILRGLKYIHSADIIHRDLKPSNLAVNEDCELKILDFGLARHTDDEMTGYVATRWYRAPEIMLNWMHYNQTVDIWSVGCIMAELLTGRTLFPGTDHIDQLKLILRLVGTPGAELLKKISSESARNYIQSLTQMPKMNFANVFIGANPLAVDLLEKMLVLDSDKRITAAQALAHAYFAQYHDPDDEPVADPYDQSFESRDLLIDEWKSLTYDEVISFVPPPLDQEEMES
p38/MK2, sequence (P49137 whole entry partner): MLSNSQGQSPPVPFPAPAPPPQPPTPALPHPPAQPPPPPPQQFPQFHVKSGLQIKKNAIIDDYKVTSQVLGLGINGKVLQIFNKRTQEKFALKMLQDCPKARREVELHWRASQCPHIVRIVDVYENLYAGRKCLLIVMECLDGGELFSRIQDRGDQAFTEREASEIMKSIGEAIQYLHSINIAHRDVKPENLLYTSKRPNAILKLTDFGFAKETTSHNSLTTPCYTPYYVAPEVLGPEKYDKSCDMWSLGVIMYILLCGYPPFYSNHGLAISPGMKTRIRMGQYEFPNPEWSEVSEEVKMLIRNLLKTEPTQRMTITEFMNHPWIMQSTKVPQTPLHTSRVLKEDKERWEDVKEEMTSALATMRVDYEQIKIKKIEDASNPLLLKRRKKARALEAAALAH
Protocol: P38 Inhibitory Potency and P38/MK2 Substrate Selectivity: The novel, MK2 substrate-selective inhibitory mechanism of compounds is evaluated in enzyme assays comparing inhibitor potency in blocking p38/MK2 versus p38/PRAK induced phosphorylation of an HSP-27 derived peptide substrate. The ability of compounds to inhibit activated phospho-p38α is evaluated using a p38α/MK2 and a p38α/PRAK cascade assay format. […] Activation of MK2 or PRAK by p38α is quantitated by measuring the phosphorylation of a fluorescently-labeled, MK2 specific peptide substrate, Hsp27 peptide ([…]). The phosphorylation of the Hsp27 peptide is quantified using the Caliper LabChip 3000. Kinase reactions is carried out in a 384-well plate (Matrical, MP101-1-PP) in 20 mM HEPES pH 7.5, 10 mM MgCl2, 0.0005% Tween-20, 0.01% BSA, 1 mM DTT, and 2% DMSO. […] The p38α compound inhibitory potency is quantitated from dose-response IC50 values or Ki values from p38α/MK2 cascade assays while the substrate selectivity is calculated as a ratio of p38α/PRAK:p38α/MK2 IC50 values. Species compounds of Formula (I), described hereinabove, evaluated in this assay, are expected to provide a therapeutic benefit in the treatment of p38 kinase mediated diseases, such as autoimmune diseases and lymphoma.

p38/PRAK = p38/PRAK (Homo sapiens (Human), UniProt Q16539); experiment: p38α/PRAK cascade assay (phosphorylation of Hsp27 peptide, Caliper LabChip 3000); format: biochemical; settings: activated p38α 20 pM, GST-PRAK 1 nM, Hsp27 peptide 1 μM, MgATP 10 μM; two values per cell
p38/PRAK, sequence (Q16539 whole entry): as the sequence (Q16539 whole entry) above
Protocol: P38 Inhibitory Potency and P38/MK2 Substrate Selectivity: The novel, MK2 substrate-selective inhibitory mechanism of compounds is evaluated in enzyme assays comparing inhibitor potency in blocking p38/MK2 versus p38/PRAK induced phosphorylation of an HSP-27 derived peptide substrate. The ability of compounds to inhibit activated phospho-p38α is evaluated using a p38α/MK2 and a p38α/PRAK cascade assay format. The kinase activity of p38α is determined by its ability to phosphorylate GST-MK2 or GST-PRAK. Activation of MK2 or PRAK by p38α is quantitated by measuring the phosphorylation of a fluorescently-labeled, MK2 specific peptide substrate, Hsp27 peptide ([…]). The phosphorylation of the Hsp27 peptide is quantified using the Caliper LabChip 3000. Kinase reactions is carried out in a 384-well plate (Matrical, MP101-1-PP) in 20 mM HEPES pH 7.5, 10 mM MgCl2, 0.0005% Tween-20, 0.01% BSA, 1 mM DTT, and 2% DMSO. […] The p38α compound inhibitory potency is quantitated from dose-response IC50 values or Ki values from p38α/MK2 cascade assays while the substrate selectivity is calculated as a ratio of p38α/PRAK:p38α/MK2 IC50 values. Species compounds of Formula (I), described hereinabove, evaluated in this assay, are expected to provide a therapeutic benefit in the treatment of p38 kinase mediated diseases, such as autoimmune diseases and lymphoma.

Compound | IC50 (p38/MK2) | IC50 (p38/PRAK)
Cc1cnc(-c2ccnc(C(C)(C)O)n2)cc1-n1c(C)cc(OCc2ccc(F)cc2F)c(Cl)c1=O [Example 284, 3-chloro-4-((2,4-difluorobenzyl)oxy)-2′-(2-(2-hydroxypropan-2-yl)pyrimidin-4-yl)-5′,6-dimethyl-2H-[1,4′-bipyridin]-2-one] | 0.0064 µM and 0.0073 µM | 0.138 µM and 0.144 µM
Cc1cnc(-c2ccnc(C(C)(C)C)n2)cc1-n1c(C)cc(OCc2ccc(F)cc2F)c(Cl)c1=O [Example 285, 2′-(2-(tert-butyl)pyrimidin-4-yl)-3-chloro-4-((2,4-difluorobenzyl)oxy)-5′,6-dimethyl-2H-[1,4′-bipyridin]-2-one] | 0.018 µM and 0.026 µM | 0.121 µM and 0.21 µM
